What is called GI50 is the concentration at which growth is held to half of that of the control.

Each structure is given as a SMILES string.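 These data come from cells grown in 96-well plates and exposed to compound for 48 hours at five concentrations. At the GI50, growth is halved.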 Activity calls are given as the source filed them. Rule as the data show it: active = GI50 up to about 1.1 µM and inactive = higher. Some results are limits rather than exact numbers.

Some test systems named below: 786-0; A498; CAKI-1; CCRF-CEM; COLO 205; EKVX; HCC 2998; HCT-116; HOP-62; HT-29; M14; NCI-H522; OVCAR-8; RPMI-8226; RXF 393; SF-268; SF-295; SK-MEL-28; SK-MEL-2; UACC-62.
Holding throughout (assay): DTP human tumour cell line panel, 48 h

Regarding `CC(O)c1cc2c(s1)C(=O)c1ccsc1C2=O` (stereo not given), the GI50 in the assay with 786-0 is 0.665 µM (active); in the assay on A498, 1.53 µM (inactive); in the assay with CAKI-1, 0.695 µM (active); in the assay with CCRF-CEM, 0.259 µM (active); in the assay with COLO 205 it was 1.77 µM (inactive); in the assay with EKVX, 0.229 µM (active). The GI50 in the assay with HCC 2998 was 0.223 µM (active); with HCT-116, 0.21 µM (active); in the assay on HOP-62, 0.142 µM (active); with HT-29 it was 0.21 µM (active); in the assay on M14 it was 0.0593 µM (active); in the assay on NCI-H522, 0.117 µM (active). Moreover, the concentration for 50% growth inhibition (GI50) in the assay on OVCAR-8 is 0.22 µM (active); in the assay with RPMI-8226 it was 0.123 µM (active); with RXF 393 it was 0.213 µM (active); with SF-268, 0.162 µM (active); in the assay on SF-295, 0.0467 µM (active); in the assay with SK-MEL-28, 0.0216 µM (active). For the same compound, the GI50 in the assay with SK-MEL-2 is 0.126 µM (active); in the assay on UACC-62, 0.0262 µM (active).

As to `C=C1C(=O)C2=CC1CCC(=O)C1(C)CCC(OC(C)=O)C(C)(C)C1CC2O` (stereo not given), the GI50 in the assay with 786-0 was 3.01 µM (inactive); in the assay on A498, 3.18 µM (inactive); in the assay with CAKI-1 it was 1.76 µM (inactive); with CCRF-CEM, 0.392 µM (active); in the assay on COLO 205, 0.771 µM (active); in the assay with EKVX, 3.91 µM (inactive). Moreover, the GI50 with HCC 2998 is 1.95 µM (inactive); in the assay on HCT-116, 1.6 µM (inactive); with HOP-62, 8.45 µM (inactive); in the assay with HT-29 it was 1.35 µM (inactive); with M14, 2.64 µM (inactive); with NCI-H522 it was 0.522 µM (active). The GI50 in the assay on OVCAR-8 was 3.81 µM (inactive); in the assay with RPMI-8226, 2.53 µM (inactive); in the assay on RXF 393, 2.23 µM (inactive); in the assay on SF-268 it was 3.4 µM (inactive); in the assay with SF-295, 9.31 µM (inactive); in the assay with SK-MEL-28, 3.66 µM (inactive). Moreover, the GI50 was 5 µM (inactive) with SK-MEL-2 and 2.27 µM (inactive) with UACC-62.

In the case of `CC1=NOC(=O)/C1=C/c1cccc2ccccc12`, the GI50 in the assay on 786-0, in the assay with A498, in the assay with CAKI-1, in the assay with CCRF-CEM, in the assay with COLO 205 and with EKVX was > 100 µM (inactive) throughout. In addition, the GI50 with HCC 2998, in the assay with HCT-116, in the assay on HOP-62, in the assay on HT-29, with M14 and in the assay with NCI-H522 was > 100 µM (inactive) throughout. Besides, the GI50 with OVCAR-8, in the assay on RPMI-8226, in the assay on RXF 393, in the assay with SF-268, in the assay with SF-295 and in the assay with SK-MEL-28 was > 100 µM (inactive) throughout. Besides, the GI50 in the assay on SK-MEL-2 and with UACC-62 was > 100 µM (inactive) in each case.

As for `Cc1ccccc1NC(=O)C(=O)CC(=O)C1CCOC1=O` (stereo not given), the GI50 in the assay with 786-0, with A498, in the assay on CAKI-1, with CCRF-CEM, in the assay on COLO 205 and with EKVX was > 100 µM (inactive) throughout. The GI50 in the assay on HCC 2998 is > 100 µM (inactive); in the assay with HCT-116, > 100 µM (inactive); with HOP-62, > 100 µM (inactive); in the assay with HT-29, > 10 µM (inactive); in the assay on M14, > 100 µM (inactive); in the assay on NCI-H522 it was > 100 µM (inactive). Further, the GI50 in the assay with OVCAR-8, with RPMI-8226, in the assay with RXF 393, in the assay on SF-268, with SF-295 and with SK-MEL-28 was > 100 µM (inactive) throughout. Moreover, the GI50 in the assay on SK-MEL-2 and in the assay with UACC-62 was > 100 µM (inactive) each time.

As to `CC1=C(C(=O)CC(=O)C(=O)Nc2ccc(Cl)cc2C)Sc2ccccc2N1`, the GI50 with 786-0, with A498, in the assay on CAKI-1, in the assay on CCRF-CEM, with COLO 205 and in the assay with EKVX was > 100 µM (inactive) throughout. For the same compound, the GI50 is > 100 µM (inactive) with HCC 2998; > 100 µM (inactive) with HCT-116; > 100 µM (inactive) in the assay on HOP-62; > 100 µM (inactive) in the assay with HT-29; > 100 µM (inactive) in the assay on M14; > 84.7 µM (inactive) in the assay with NCI-H522. Also, the GI50 in the assay with OVCAR-8, in the assay with RPMI-8226, in the assay with RXF 393, in the assay with SF-268, with SF-295 and in the assay on SK-MEL-28 was > 100 µM (inactive) throughout. Also, the GI50 in the assay with SK-MEL-2 and in the assay with UACC-62 was > 100 µM (inactive) each time.

Consider `O=P1(N(CCCl)CCCl)Oc2c(Cl)cc(Cl)c(Cl)c2Cc2c(Cl)c(Cl)cc(Cl)c2O1`, for which the GI50 with 786-0 is 90.4 µM (inactive); in the assay on A498 it was > 100 µM (inactive); in the assay with CAKI-1, 64.9 µM (inactive); with CCRF-CEM, 29.2 µM (inactive); in the assay on COLO 205, 22.5 µM (inactive); in the assay with EKVX it was 92.3 µM (inactive). Besides, the GI50 is 25.2 µM (inactive) in the assay with HCC 2998; 27.9 µM (inactive) with HCT-116; 64 µM (inactive) in the assay on HOP-62; 41.4 µM (inactive) in the assay on HT-29; 75.3 µM (inactive) with M14; 31 µM (inactive) with NCI-H522. For the same compound, the GI50 with OVCAR-8 was 55.1 µM (inactive); with RPMI-8226, 64.3 µM (inactive); with RXF 393, > 100 µM (inactive); in the assay on SF-268, > 100 µM (inactive); in the assay on SF-295, 22.7 µM (inactive); with SK-MEL-28, > 100 µM (inactive). The GI50 in the assay with SK-MEL-2 was 22 µM (inactive); in the assay with UACC-62 it was 48.3 µM (inactive).

For the compound `N#CCCN(CCC#N)c1ccc(/C=C2\SC(=S)NC2=O)cc1`, the GI50 is 30 µM (inactive) in the assay on 786-0; 57.1 µM (inactive) with A498; 23 µM (inactive) in the assay with CAKI-1; > 100 µM (inactive) in the assay on CCRF-CEM; > 100 µM (inactive) in the assay with COLO 205; > 100 µM (inactive) in the assay on EKVX. For the same compound, the GI50 with HCC 2998 was > 100 µM (inactive); in the assay with HCT-116, > 100 µM (inactive); in the assay on HOP-62 it was 35.2 µM (inactive); in the assay on HT-29 it was > 100 µM (inactive); with M14, > 100 µM (inactive); in the assay on NCI-H522 it was > 100 µM (inactive). In addition, the GI50 in the assay on OVCAR-8 is 44.2 µM (inactive); with RPMI-8226, > 100 µM (inactive); in the assay on RXF 393 it was 37.9 µM (inactive); in the assay with SF-268 it was > 100 µM (inactive); in the assay on SF-295 it was 39.4 µM (inactive); in the assay with SK-MEL-28, > 100 µM (inactive). The GI50 in the assay on SK-MEL-2 and with UACC-62 was > 100 µM (inactive) in each case.

As for `Cc1nc(Cl)c2sc(=S)n(-c3ccc(F)cc3)c2n1`, the GI50 was 2.45 µM (inactive) in the assay with 786-0; 1.58 µM (inactive) in the assay with A498; 1.56 µM (inactive) in the assay on CAKI-1; 2.72 µM (inactive) in the assay with CCRF-CEM; 4.47 µM (inactive) with COLO 205; 13.2 µM (inactive) in the assay with EKVX. The GI50 in the assay on HCC 2998 is 4.49 µM (inactive); in the assay with HCT-116, 1.75 µM (inactive); with HOP-62, 2.22 µM (inactive); with HT-29 it was 2.28 µM (inactive); in the assay on M14, 2.11 µM (inactive); with NCI-H522, 2.84 µM (inactive). In addition, the GI50 is 14.6 µM (inactive) in the assay with OVCAR-8; 3.4 µM (inactive) with RPMI-8226; 7.85 µM (inactive) with RXF 393; 1.81 µM (inactive) in the assay with SF-268; 10.9 µM (inactive) with SF-295; 2.33 µM (inactive) in the assay with SK-MEL-28. The results for the GI50 with SK-MEL-2 and in the assay with UACC-62 were 12.8 µM (inactive) and 11.8 µM (inactive), respectively.

On to `COC(=O)c1nc(NN)cc(O)c1CCCCCc1c(O)nc(NN)nc1C(=O)OC`, for which the GI50 in the assay with 786-0 was > 100 µM (inactive); in the assay with A498, > 100 µM (inactive); in the assay with CAKI-1 it was > 100 µM (inactive); in the assay with CCRF-CEM, > 100 µM (inactive); in the assay on COLO 205, > 77.8 µM (inactive); in the assay on EKVX, > 100 µM (inactive). The GI50 in the assay on HCC 2998, in the assay with HCT-116, with HOP-62, in the assay on HT-29, in the assay with M14 and in the assay with NCI-H522 was > 100 µM (inactive) in each case. Besides, the GI50 in the assay with OVCAR-8 was > 100 µM (inactive); with RPMI-8226, 72.4 µM (inactive); with RXF 393 it was > 100 µM (inactive); with SF-268 it was > 100 µM (inactive); in the assay with SF-295 it was > 100 µM (inactive); with SK-MEL-28, > 100 µM (inactive). Besides, the GI50 with SK-MEL-2 and with UACC-62 was > 100 µM (inactive) throughout.

As for `CC(C)c1ccc2c(c1)[C@@]1(C)CC[C@H](C)C(C)(C)C1CC2` (stereo not given in full), the GI50 is 18.1 µM (inactive) in the assay with 786-0; 17.7 µM (inactive) in the assay with A498; 23.9 µM (inactive) in the assay with CAKI-1; 23.7 µM (inactive) in the assay with CCRF-CEM; 20.1 µM (inactive) in the assay on COLO 205; 18.9 µM (inactive) in the assay on EKVX. Further, the GI50 in the assay with HCC 2998 is 20.9 µM (inactive); in the assay with HCT-116 it was 18.4 µM (inactive); in the assay with HOP-62, 18.8 µM (inactive); with HT-29 it was 16.3 µM (inactive); in the assay with M14, 18.9 µM (inactive); in the assay with NCI-H522, 27.4 µM (inactive). Besides, the GI50 in the assay with OVCAR-8 is 18.6 µM (inactive); in the assay on RPMI-8226, 18.4 µM (inactive); in the assay with RXF 393 it was 17.5 µM (inactive); in the assay with SF-268 it was 19.1 µM (inactive); with SF-295 it was 20.6 µM (inactive); with SK-MEL-28 it was 17 µM (inactive). Further, the GI50 with SK-MEL-2 was 26.4 µM (inactive); in the assay on UACC-62 it was 16.2 µM (inactive).
